The record followed here is patent US9492460B2, “Carbazole compounds useful as bromodomain inhibitors” (Bristol-Myers Squibb Company, priority 2013, dated 2016).

This assay deals with T1, bromodomain BRD4 (44-168), BRD4 (333-460), and BRD4 (1-477 or 44-460) (Homo sapiens, UniProt O60885).
T1 construct: BRD4(44-168), BRD4(333-460), BRD4(44-460), BRD4(1-477), O60885-1; fused on or other part: N-terminal BirA biotinylation motif, biotinylated; The TVMV-cleavable His6 tag is removed, except in some BRD4(44-460) runs detected with anti-His terbium cryptate
The assay can be described thus: Time Resolved Fluorescence Resonance Energy Transfer (TR-FRET) binding assay. To be noted: one of the FRET assays described.

As for `Cc1noc(C)c1-c1cc(C(N)=O)c2c3ccc(C(C)(C)O)cc3n(C(c3ccc(F)cc3)C3CCOCC3)c2c1` (single isomer, unassigned) [Example 219, 2-(Dimethyl-1,2-oxazol-4-yl)-9-[(4-fluorophenyl)(oxan-4-yl)methyl]-7-(2-hydroxypropan-2-yl)-9H-carbazole-4-carboxamide], the half-inhibitory concentration (IC50) was less than 50 nM.

The compound `Cc1noc(C)c1-c1cc(C(N)=O)c2c3cc(NC(=O)N(C)C)ccc3n(Cc3ccccc3)c2c1` [Example 147, 9-benzyl-6-((dimethylcarbamoyl)amino)-2-(3,5-dimethyl-4-isoxazolyl)-9H-carbazole-4-carboxamide] came in with an IC50 of less than 50 nM.

Compound `Cc1noc(C)c1-c1cc(C(N)=O)c2c3cc(C(=O)N4CC(C)OC(C)C4)ccc3n(Cc3cccc(Cl)c3)c2c1` (stereo not shown) [Example 34] registered an IC50 of less than 50 nM.

Compound `CC(=O)N(CCF)c1ccc2c(c1)c1c(C(N)=O)cc(-c3c(C)noc3C)cc1n2Cc1ccccc1` [Example 134, 6-(acetyl(2-fluoroethyl)amino)-9-benzyl-2-(3,5-dimethyl-4-isoxazolyl)-9H-carbazole-4-carboxamide] showed an IC50 of less than 50 nM.

Regarding `CNC(=O)Nc1ccc2c(c1)c1c(C(N)=O)cc(-c3c(C)noc3C)cc1n2Cc1ccccc1` [Example 148, 9-benzyl-2-(3,5-dimethyl-4-isoxazolyl)-6-((methylcarbamoyl)amino)-9H-carbazole-4-carboxamide], the half-inhibitory concentration (IC50) is less than 50 nM.

Turning to `Cc1noc(C)c1-c1cc(C(N)=O)c2c3cc(NCCF)ccc3n(Cc3ccccc3)c2c1` [Example 136, 9-benzyl-2-(3,5-dimethyl-4-isoxazolyl)-6-(2-fluoroethylamino)-9H-carbazole-4-carboxamide], the IC50 was less than 50 nM.

For `COC1CCN(C(=O)c2ccc3c(c2)c2c(C(N)=O)cc(-c4c(C)noc4C)cc2n3Cc2ccccc2)CC1` [Example 70], the IC50 was less than 50 nM.

`COc1ccc2c(c1)c1c(C(N)=O)cc(-c3c(C)noc3C)cc1n2C(C)c1ccccc1` (single isomer, unassigned) [Example 179, 2-(3,5-dimethyl-4-isoxazolyl)-6-methoxy-9-(1-phenylethyl)-9H-carbazole-4-carboxamide]: the half-inhibitory concentration (IC50) was less than 50 nM.

Take `CNC(=O)c1cc(-c2c(C)noc2C)cc2c1c1cc(C(=O)N3CC(F)C3)ccc1n2Cc1ccc(C#N)cc1` [Example 108]: the concentration for half-maximal inhibition (IC50) was less than 50 nM.

In turn, `Cc1noc(C)c1-c1cc(C(N)=O)c2c3cc(C(=O)N4CCOCC4)ccc3n(Cc3ccccc3)c2c1` [Example 47, 9-benzyl-2-(3,5-dimethyl-4-isoxazolyl)-6-(4-morpholinylcarbonyl)-9H-carbazole-4-carboxamide] registered an IC50 of less than 50 nM.

In turn, `Cc1noc(C)c1-c1cc(C(N)=O)c2c3cc(N4CCOC4=O)ccc3n(Cc3ccc(F)cc3)c2c1` [Example 152, 2-(3,5-dimethyl-4-isoxazolyl)-9-(4-fluorobenzyl)-6-(2-oxo-1,3-oxazolidin-3-yl)-9H-carbazole-4-carboxamide] yielded an IC50 of less than 50 nM.

As to `Cc1noc(C)c1-c1ccc2c3cc(C(=O)N4CC(C)OC(C)C4)ccc3n(Cc3ccc(F)cc3)c2c1` (stereo not shown) [Example 18], the IC50 was less than 500 nM.

Take `Cc1noc(C)c1-c1cc(C(N)=O)c2c3cc(N4CCCOC4=O)ccc3n(Cc3cc(F)ccc3F)c2c1` [Example 159, 9-(2,5-difluorobenzyl)-2-(3,5-dimethyl-4-isoxazolyl)-6-(2-oxo-1,3-oxazinan-3-yl)-9H-carbazole-4-carboxamide]: the IC50 was less than 50 nM.

Compound `Cc1noc(C)c1-c1cc(C(N)=O)c2c3ccc(C(C)(C)O)cc3n(C(c3ccccc3)C3(F)CCC3)c2c1` (single isomer, unassigned) [Example 222, 2-(Dimethyl-1,2-oxazol-4-yl)-9-[(1-fluorocyclobutyl)(phenyl)methyl]-7-(2-hydroxypropan-2-yl)-9H-carbazole-4-carboxamide] gave an IC50 of less than 50 nM.

As for `Cc1noc(C)c1-c1ccc2c3cc(C(=O)N4C[C@@H](C)O[C@@H](C)C4)ccc3n(S(C)(=O)=O)c2c1` [Example 23, 2-(3,5-dimethyl-4-isoxazolyl)-6-((cis-2,6-dimethyl-4-morpholinyl)carbonyl)-9-(methylsulfonyl)-9H-carbazole], the IC50 is less than 7500 nM.

In the case of `CNC(=O)c1cc(-c2c(C)noc2C)cc2[nH]c3ccc(C(=O)N4CC(F)C4)cc3c12` [Example 101, 2-(3,5-dimethyl-4-isoxazolyl)-6-((3-fluoro-1-azetidinyl)carbonyl)-N-methyl-9H-carbazole-4-carboxamide], the IC50 was less than 500 nM.

In the case of `Cc1noc(C)c1-c1cc(C(N)=O)c2c3cc(C(=O)N4CC(F)C4)ccc3n(Cc3ccc(Cl)c(F)c3)c2c1` [Example 86], the IC50 was less than 50 nM.

`CCNC(=O)c1cc(-c2c(C)noc2C)cc2c1c1cc(N3CCCOC3=O)ccc1n2Cc1ccc(Cl)cc1` [Example 166, 9-(4-chlorobenzyl)-2-(3,5-dimethyl-4-isoxazolyl)-N-ethyl-6-(2-oxo-1,3-oxazinan-3-yl)-9H-carbazole-4-carboxamide]: the IC50 was less than 7500 nM.

For `CNC(=O)c1cc(-c2c(C)noc2C)cc2c1c1cc(C(=O)N3CC(F)C3)ccc1n2CC1CCC1` [Example 114], the IC50 is less than 50 nM.

`CCC1CCN(C(=O)c2ccc3c(c2)c2c(C(N)=O)cc(-c4c(C)noc4C)cc2n3Cc2ccccc2)CC1` [Example 50] displayed an IC50 of less than 50 nM.

Compound `Cc1noc(C)c1-c1cc(C(N)=O)c2c3cc(N4CCOC4=O)ccc3n(Cc3ccc(Cl)c(F)c3)c2c1` [Example 164, 9-(4-chloro-3-fluorobenzyl)-2-(3,5-dimethyl-4-isoxazolyl)-6-(2-oxo-1,3-oxazolidin-3-yl)-9H-carbazole-4-carboxamide] registered an IC50 of less than 500 nM.

In the case of `Cc1noc(C)c1-c1cc(C(N)=O)c2c3cc(O)ccc3n(Cc3ccccc3)c2c1` [Example 178, 9-benzyl-2-(3,5-dimethyl-4-isoxazolyl)-6-hydroxy-9H-carbazole-4-carboxamide], the IC50 was less than 50 nM.

Compound `CCCNC(=O)c1cc(-c2c(C)noc2C)cc2c1c1cc(C(=O)N3CC(F)C3)ccc1n2Cc1ccc(F)cc1` [Example 124, 2-(3,5-dimethyl-4-isoxazolyl)-6-((3-fluoro-1-azetidinyl)carbonyl)-9-(4-fluorobenzyl)-N-propyl-9H-carbazole-4-carboxamide] returned an IC50 of less than 50 nM.

Compound `Cc1noc(C)c1-c1cc(C(N)=O)c2c(c1)[nH]c1ccc(C(=O)N3C[C@@H](C)O[C@@H](C)C3)cc12` [Example 25, 2-(3,5-dimethyl-4-isoxazolyl)-6-((cis-2,6-dimethyl-4-morpholinyl)carbonyl)-9H-carbazole-4-carboxamide] registered an IC50 of less than 500 nM.

Take `Cc1noc(C)c1-c1cc(C(N)=O)c2c3cc(C(=O)N4CC(F)(F)C4)ccc3n(Cc3ccccc3)c2c1` [Example 78]: the IC50 was less than 50 nM.

Consider `Cc1noc(C)c1-c1cc(C(N)=O)c2c3cc(C(=O)N4CC(C)OC(C)C4)ccc3n(Cc3nccs3)c2c1` (stereo not shown) [Example 30], for which the IC50 is less than 50 nM.

Compound `Cc1noc(C)c1-c1cc(C(N)=O)c2c3cc(C(=O)N4COCC4(C)C)ccc3n(Cc3ccccc3)c2c1` [Example 77] yielded an IC50 of less than 50 nM.

`Cc1noc(C)c1-c1cc(C(N)=O)c2c3cc(C(=O)N4CC(F)C4)ccc3n(C(C)c3ccccc3C(F)(F)F)c2c1` (stereo not shown) [Example 89] gave an IC50 of less than 50 nM.

Take `Cc1noc(C)c1-c1ccc2c(c1)[nH]c1ccc(C(=O)N3CCOCC3)cc12` [Example 1, 2-(3,5-dimethyl-4-isoxazolyl)-6-(4-morpholinylcarbonyl)-9H-carbazole]: the IC50 is less than 500 nM.

Compound `Cc1noc(C)c1-c1cc(C(N)=O)c2c3cc(C(=O)N4CCCC4)ccc3n(Cc3ccccc3)c2c1` [Example 66] registered an IC50 of less than 50 nM.

In turn, `Cc1noc(C)c1-c1ccc2c3cc(C(=O)N4CC(C)OC(C)C4)ccc3n(Cc3ccccc3Cl)c2c1` (stereo not shown) [Example 11] gave an IC50 of less than 500 nM.

In the case of `Cc1noc(C)c1-c1cc(C(N)=O)c2c3cc(C(=O)N4CCC(CO)CC4)ccc3n(Cc3ccccc3)c2c1` [Example 68], the IC50 was less than 50 nM.

In turn, `Cc1noc(C)c1-c1cc(C(N)=O)c2c3cc(C(=O)N4CCC(C)(O)CC4)ccc3n(Cc3ccccc3)c2c1` [Example 51] registered an IC50 of less than 50 nM.

The compound `Cc1noc(C)c1-c1cc(C(N)=O)c2c3cc(N4CCCS4(=O)=O)ccc3n(Cc3ccc(F)cc3)c2c1` [Example 174, 2-(3,5-dimethyl-4-isoxazolyl)-6-(1,1-dioxido-2-isothiazolidinyl)-9-(4-fluorobenzyl)-9H-carbazole-4-carboxamide] showed a half-inhibitory concentration (IC50) of less than 50 nM.

Regarding `Cc1noc(C)c1-c1cc(C(N)=O)c2c3cc(C(=O)N4CC(C)OC(C)C4)ccc3n(Cc3ccc(F)cc3)c2c1` (stereo not shown) [Example 32], the IC50 was less than 50 nM.

With `Cc1noc(C)c1-c1cc(C(N)=O)c2c3cc(C(=O)N4CC(C)OC(C)C4)ccc3n(Cc3ccccc3F)c2c1` (stereo not shown) [Example 31], the IC50 is less than 50 nM.

Compound `Cc1noc(C)c1-c1cc(C(N)=O)c2c3cc(C(=O)N4CCC(C)(C)C4)ccc3n(Cc3ccccc3)c2c1` [Example 58] gave an IC50 of less than 50 nM.

Turning to `CNC(=O)c1cc(-c2c(C)noc2C)cc2c1c1cc(C(=O)N3CC(F)C3)ccc1n2Cc1c(F)cccc1F` [Example 105], the IC50 is less than 50 nM.

As for `COC(=O)c1ccc2c3c(C#N)cc(-c4c(C)noc4C)cc3n(C(c3ccccc3)c3ccccc3)c2c1` [Example 191, Methyl 5-cyano-7-(3,5-dimethyl-4-isoxazolyl)-9-(diphenylmethyl)-9H-carbazole-2-carboxylate], the IC50 is less than 50 nM.

With `Cc1noc(C)c1-c1cc(C(N)=O)c2c3ccc(C(C)(C)O)cc3n(C(c3ccccc3)C3(F)CCC3)c2c1` (single isomer, unassigned) [Example 221, 2-(Dimethyl-1,2-oxazol-4-yl)-9-[(1-fluorocyclobutyl)(phenyl)methyl]-7-(2-hydroxypropan-2-yl)-9H-carbazole-4-carboxamide], the IC50 is less than 50 nM.
